Results from the NIST ThermoML archive (doi:10.1016/j.jct.2017.07.016).

Assay: xn = mol fraction of the nth substance listed
Details: 96.7 kPa, Liquid; for viscosity: Capillary tube (Ostwald / Ubbelohde) method; for mass density: Vibrating tube method

CCCCCCn1cc[n+](C)c1.[Cl-] [1-hexyl-3-methylimidazolium chloride] + C[S+](C)[O-]
Details | mass density [kg/m3] | viscosity [mPa·s]
303.15 K, x1 = 0.141 | 1078.5 | 6.523
303.15 K, x1 = 0.278 | 1068.64 | 23.07
303.15 K, x1 = 0.366 | 1063.06 | 54.37
303.15 K, x1 = 0.472 | 1057.13 | 134.28
303.15 K, x1 = 0.606 | 1050.34 | 343.91
303.15 K, x1 = 0.773 | 1043.22 | 806.64
303.15 K, x1 = 0.878 | 1039.66 | 2111.1
303.15 K, x1 = 1 | 1036.07 | 5718.5
308.15 K, x1 = 0.141 | 1074.26 | 5.691
308.15 K, x1 = 0.278 | 1064.88 | 18.67
308.15 K, x1 = 0.366 | 1059.5 | 41.74
308.15 K, x1 = 0.472 | 1053.74 | 100.12
308.15 K, x1 = 0.606 | 1047.15 | 242.91
308.15 K, x1 = 0.773 | 1040.19 | 554.65
308.15 K, x1 = 0.878 | 1036.71 | 1348.9
308.15 K, x1 = 1 | 1033.22 | 3430.8
313.15 K, x1 = 0.141 | 1070.08 | 4.951
313.15 K, x1 = 0.278 | 1061.15 | 15.46
313.15 K, x1 = 0.366 | 1055.94 | 33.33
313.15 K, x1 = 0.472 | 1050.36 | 76.29
313.15 K, x1 = 0.606 | 1043.96 | 176.38
313.15 K, x1 = 0.773 | 1037.17 | 384.99
313.15 K, x1 = 0.878 | 1033.77 | 895.04
313.15 K, x1 = 1 | 1030.38 | 2146.1
318.15 K, x1 = 0.141 | 1065.87 | 4.385
318.15 K, x1 = 0.278 | 1057.41 | 12.95
318.15 K, x1 = 0.366 | 1052.4 | 26.72
318.15 K, x1 = 0.472 | 1046.99 | 58.57
318.15 K, x1 = 0.606 | 1040.76 | 130.64
318.15 K, x1 = 0.773 | 1034.12 | 274.48
318.15 K, x1 = 0.878 | 1030.8 | 607.51
318.15 K, x1 = 1 | 1027.56 | 1390.4
323.15 K, x1 = 0.141 | 1061.67 | 3.892
323.15 K, x1 = 0.278 | 1053.68 | 10.99
323.15 K, x1 = 0.366 | 1048.87 | 21.9
323.15 K, x1 = 0.472 | 1043.65 | 46.32
323.15 K, x1 = 0.606 | 1037.58 | 98.7
323.15 K, x1 = 0.773 | 1031.12 | 201.06
323.15 K, x1 = 0.878 | 1027.89 | 425.84
323.15 K, x1 = 1 | 1024.75 | 928.1
328.15 K, x1 = 0.141 | 1057.48 | 3.493
328.15 K, x1 = 0.278 | 1049.95 | 9.439
328.15 K, x1 = 0.366 | 1045.35 | 18.22
328.15 K, x1 = 0.472 | 1040.31 | 37.12
328.15 K, x1 = 0.606 | 1034.41 | 76.27
328.15 K, x1 = 0.773 | 1028.15 | 150.51
328.15 K, x1 = 0.878 | 1025.02 | 306.13
328.15 K, x1 = 1 | 1021.92 | 638.79
333.15 K, x1 = 0.141 | 1053.31 | 3.154
333.15 K, x1 = 0.278 | 1046.23 | 8.18
333.15 K, x1 = 0.366 | 1041.84 | 15.34
333.15 K, x1 = 0.472 | 1036.99 | 30.3
333.15 K, x1 = 0.606 | 1031.26 | 60.05
333.15 K, x1 = 0.773 | 1025.19 | 114.9
333.15 K, x1 = 0.878 | 1022.16 | 227.29
333.15 K, x1 = 1 | 1019.13 | 453.59
338.15 K, x1 = 0.141 | 1049.14 | 2.85
338.15 K, x1 = 0.278 | 1042.51 | 7.175
338.15 K, x1 = 0.366 | 1038.35 | 13.14
338.15 K, x1 = 0.472 | 1033.67 | 25.52
338.15 K, x1 = 0.606 | 1028.12 | 48.07
338.15 K, x1 = 0.773 | 1022.24 | 89.02
338.15 K, x1 = 0.878 | 1019.29 | 169.96
338.15 K, x1 = 1 | 1016.38 | 327.52
343.15 K, x1 = 0.141 | 1045.01 | 2.594
343.15 K, x1 = 0.278 | 1038.81 | 6.291
343.15 K, x1 = 0.366 | 1034.87 | 11.28
343.15 K, x1 = 0.472 | 1030.39 | 20.88
343.15 K, x1 = 0.606 | 1025 | 39.06
343.15 K, x1 = 0.773 | 1019.29 | 70.28
343.15 K, x1 = 0.878 | 1016.44 | 129.41
343.15 K, x1 = 1 | 1013.65 | 243.04
348.15 K, x1 = 0.141 | 1040.88 | 2.378
348.15 K, x1 = 0.278 | 1035.11 | 5.597
348.15 K, x1 = 0.366 | 1031.39 | 9.738
348.15 K, x1 = 0.472 | 1027.11 | 17.65
348.15 K, x1 = 0.606 | 1021.88 | 32.05
348.15 K, x1 = 0.773 | 1016.35 | 56.52
348.15 K, x1 = 0.878 | 1013.59 | 100.3
348.15 K, x1 = 1 | 1010.91 | 183.45
353.15 K, x1 = 0.141 | 1036.68 | 2.184
353.15 K, x1 = 0.278 | 1031.43 | 4.998
353.15 K, x1 = 0.366 | 1027.93 | 8.538
353.15 K, x1 = 0.472 | 1023.84 | 15.07
353.15 K, x1 = 0.606 | 1018.78 | 26.7
353.15 K, x1 = 0.773 | 1013.43 | 45.71
353.15 K, x1 = 0.878 | 1010.75 | 81.75
353.15 K, x1 = 1 | 1008.18 | 140.06
